In patent publication US20160176924A1, “MODIFIED PEPTIDES AS POTENT INHIBITORS OF THE PSD-95/NMDA RECEPTOR INTERACTION” (priority 2008, published 2016):
Like-named read-outs stand apart in the source and are kept apart here. Numbered stars: 1 amine (or outer) side, 2 acyl side, 3 side chain; on linkers, the order of the positions; unused ones are H or OH. Bridge positions count the residues as written; N and C are the ends. Ends that are not written are not given here. Peptide text beside a SMILES is read from it. I, II: the chains in the order shown. CO(CH2CH2O)13CH2CH2CO = O=C(CCOCCOCCOCCOCCOCCOCCOCCOCCOCCOCCOCCOCCOCCC(=O)[*:2])[*:1]

Key:
PDZ1-2 tandem of PSD-95 = target: T1, PDZ1-2 tandem of PSD-95 (Homo sapiens, UniProt P78352); assay: FP heterologous competition binding assay; settings: mean ± SEM
T1 construct: PDZ1-2 (residues 61-249) tandem; made in house; host or cells: E. coli BL21-DE3 pLysS
From the text: (§1) Determined IC50 values may be converted to Ki values.^5 Suitable fluorophores include either 5-FAM or Cy5, which may be coupled to a tripeptide (KSG or CSG) linker attached to the N-terminus of the undecapeptide, to give 5-FAM-NR2B, Cy5-NR2B, 5-FAM-CRIPT and Cy5-CRIPT. The 5-FAM fluorophore may be attached to the undecapeptides by coupling with HATU. The Cy5 fluorophore may be conjugated to the undecapeptides by coupling Cy5-maleimide to the cysteine side chain of the tripeptide sequence CSG attached to the N-terminus of the peptide, as detailed in the Methodology section.
(§2) To measure the affinities between non-fluorescent peptides and PDZ domains, heterologous competition bindings assay were performed. This was done by adding increasing concentrations of peptide to a fixed concentration of Cy5-NR2B, 5-FAM-NR2B, Cy5-CRIPT or 5-FAM-CRIPT (50 nM) and PDZ (20 μM for PDZ1, 3 μM for PDZ2 and 1-2 and 5 μM for PDZ3) in the same TBS buffer and conditions as described above. FP values were then fitted to the general equation: Y=Bottom+(Top−Bottom)/[1[…](10̂^X-logIC50)], where X is the logarithmic value of peptide concentration. Hereby the IC50 value was obtained, which is used to calculate the theoretical competitive inhibition constant, Ki.^5
(§3) A convenient and reliable way to examine interactions between peptide analogues and PDZ domains is by using a fluorescence polarization (FP) assay. The three PDZ domains, PDZ1-3, of PSD-95 were expressed individually as set out above, while PDZ1-2 was also expressed as a tandem construct. […] IC50 values were then converted to Ki values.^5

[1] = Human blood plasma stability assay; assay type: in vitro ADME
Procedure: In this assay, the half-life (T1/2) of a compound in blood plasma is measured in vitro, whereby its susceptibility to degradation by proteases, peptidases and general plasma contents is quantified.
Compounds of interest were dissolved in human blood plasma (270 μl; 3H Biomedical, Sweden, cat no 1300-1-P50) to a concentration of 0.25 mM (30 μL of 2.5 mM) and incubated at 37° C. Aliquots (30 μl) were removed at various time intervals (0, 5, 10, 20, 40, 80, 160, 320, 960, 1280, 2550, 4560 and 7240 min) and quenched with 60 μL trichloroacetic acid (aq., 5%). The aliquots were vortexed, and incubated for at least 15 min, at 4° C. prior to centrifugation at 18,000 g for 2 min and the supernatant was analyzed by RP-HPLC to quantify the remaining compound (absorbance at 218 nm).

PDZ2 of PSD-95 = target: T2, PDZ2 of PSD-95 (Homo sapiens, UniProt P78352); assay: FP heterologous competition binding assay; settings: for Ki: FP competition, mean ± SEM, NA = no activity/affinity
T2 construct: PDZ2 (residues 155-249); made in house; host or cells: E. coli BL21-DE3 pLysS
From the text: as §1, §2, §3

PDZ1 of PSD-95 = target: T3, PDZ1 of PSD-95 (Homo sapiens, UniProt P78352); assay: FP heterologous competition binding assay; settings: for Ki: FP competition, mean ± SEM, NA = no activity/affinity
T3 construct: PSD-95 PDZ1 (residues 61-151); made in house; host or cells: E. coli BL21-DE3 pLysS
From the text: as §1, §2, §3

PDZ3 of PSD-95 = target: T4, PDZ3 of PSD-95 (Homo sapiens, UniProt P78352); assay: FP heterologous competition binding assay; settings: FP competition; mean ± SEM; NA = no activity/affinity
T4 construct: PDZ3 (residues 309-401); made in house; host or cells: E. coli BL21-DE3 pLysS
From the text: as §1, §2, §3

[2] = human, plasma, Blood plasma half life (T1/2)

| Molecule | Ki (PDZ1-2 tandem of PSD-95) | half-life at […] [1, 2] | Ki (PDZ2 of PSD-95) | Ki (PDZ1 of PSD-95) | further results |
| --- | --- | --- | --- | --- | --- |
| YGRKKRRQRRRKLSSIESDV [Tat-NR2B (3), reference compound] [listing 1 of 2 here] | 9.8 ± 0.35 µM |  |  |  |  |
| CC[C@H](C)[C@H](N)C(=O)N[C@@H](C)C(=O)N[C@H](C(=O)N(C)[C@@H](C)C(=O)N[C@H](C(=O)O)C(C)C)[C@@H](C)O [IATAMeV (89), IATAMeV] |  | 32 min |  |  |  |
| CC(C)[C@H](NC(=O)[C@H](CC(=O)O)NC(=O)[C@H](CO)NC(=O)[C@@H](N)CCC(N)=O)C(=O)O [Compound 29] (H-QSDV-OH) |  | 17 to 55 min |  |  |  |
| YGRKKRRQRRRKLSSIESDV [Tat-NR2B (3), reference compound] [listing 2 of 2 here] |  |  |  |  | half-life at […] ([1]; human blood plasma, 37° C., 0.25 mM, read-out: Blood plasma half life (T1/2)): 1470 min |
| CC(C)[C@H](NC(=O)[C@H](C)NC(=O)[C@@H](NC(=O)[C@H](CCC(=O)O)NCCc1ccc(Cl)c(Cl)c1)C(C)O)C(=O)O (some centres unmarked) [Compound 61] |  |  | 1.1 ± 0.11 µM |  |  |
| CC(C)[C@H](NC(=O)[C@H](C)NC(=O)[C@@H](NC(=O)[C@H](CCC(N)=O)NCCC1CCCCC1)[C@@H](C)O)C(=O)O [QTAV (72)] |  |  |  | 21 ± 1.1 µM |  |
| CC(C)[C@H](NC(=O)[C@H](C)NC(=O)[C@@H](N)[C@@H](C)O)C(=O)O [TAV (49), TAV] (H-Thr-Ala-Val-OH; N-terminus and C-terminus assumed) |  |  | 37 µM | 42 µM | fold increase in Ki (loss of affinity) compared to NR2B peptide (1), PDZ2 (PDZ2 of PSD-95): ~9 fold; fold increase in Ki (loss of affinity) compared to NR2B peptide (1), PDZ1 (PDZ1 of PSD-95): ca. 2 fold |
| CC(C)[C@H](NC(=O)[C@H](CC(=O)O)NC(=O)[C@H](CO)NC(=O)[C@@H](N)CCC(=O)O)C(=O)O [ESDV (8), ESDV] (H-ESDV-OH; N-terminus and C-terminus assumed) | 28 ± 2.9 µM |  | 28 ± 0.92 µM | 56 ± 2.4 µM | fold increase in Ki (loss of affinity) compared to NR2B peptide (1), PDZ2 (PDZ2 of PSD-95): 6.8 fold; fold increase in Ki (loss of affinity) compared to NR2B peptide (1), PDZ1 (PDZ1 of PSD-95): 3.1 fold |
| CC[C@H](C)[C@H](NC(=O)CCOCCOCCOCCOCCOCCOCCOCCC(=O)N[C@H](C(=O)N[C@@H](CCC(=O)O)C(=O)N[C@@H](CO)C(=O)N[C@@H](CC(=O)O)C(=O)N[C@H](C(=O)O)C(C)C)[C@@H](C)CC)C(=O)N[C@@H](CCC(=O)O)C(=O)N[C@@H](CO)C(=O)N[C@@H](CC(=O)O)C(=O)N[C@H](C(=O)O)C(C)C [(IESDV)2PEG6 (77), (IESDV)2PEG6] | ~0.1 µM | > 8000 min |  |  | degradation in human blood plasma, in words [1]: no significant degradation could be detected over a time period of 6 days |
| CC(C)[C@H](NC(=O)[C@H](C)NC(=O)[C@@H](NC(=O)[C@@H](N)CCC(=O)O)[C@@H](C)O)C(=O)O [ETAV (51), ETAV] |  |  | 22 ± 0.92 µM | 29 ± 1.6 µM | Ki (PDZ3 of PSD-95): 260 ± 20 µM |
| CC(C)[C@H](NC(=O)[C@H](CC(=O)O)NC(=O)[C@H](CO)NC(=O)[C@H](CCC(=O)O)NC(=O)CCOCCOCCOCCOCCOCCOCCOCCOCCOCCOCCOCCOCCOCCC(=O)N[C@@H](CCC(=O)O)C(=O)N[C@@H](CO)C(=O)N[C@@H](CC(=O)O)C(=O)N[C@H](C(=O)O)C(C)C)C(=O)O [Compound 84] (I: ESDV-OH / II: ESDV-OH; linker I:N-II:N via CO(CH2CH2O)13CH2CH2CO; C-terminus assumed) |  |  | 22 ± 0.18 µM |  |  |
| CC[C@H](C)[C@H](NC(=O)CCOCCOCCOCCOCCOCCOCCOCCOCCOCCC(=O)N[C@H](C(=O)N[C@@H](CCC(=O)O)C(=O)N[C@@H](CO)C(=O)N[C@@H](CC(=O)O)C(=O)N[C@H](C(=O)O)C(C)C)[C@@H](C)CC)C(=O)N[C@@H](CCC(=O)O)C(=O)N[C@@H](CO)C(=O)N[C@@H](CC(=O)O)C(=O)N[C@H](C(=O)O)C(C)C [(IESDV)2PEG8 (76), (IESDV)2PEG8] | ~0.1 µM | > 8000 min | 2.6 ± 0.13 µM |  | degradation in human blood plasma, in words [1]: no significant degradation could be detected over a time period of 6 days |
